Data taken from patent US8530513B1, “Pharmaceutical uses of diterpene excavatolide B from a coral or an analogue thereof” (National Sun Yat-Sen University, priority 2012, dated 2013).

System: IL-6
Assay: LPS-induced IL-6 expression in mouse bone marrow-derived dendritic cells, ELISA
Assay type: cell-based
Conditions: DCs co-treated with LPS and BrDs at 20 μM
Source text: For mouse bone marrow-derived DCs (BMDCs), five to six-week-old female C57BL/6JNarl mice were purchased from the National Laboratory Animal Center, Taiwan and kept under SPF conditions. BMDCs were generated from bone marrow cells of C57BL/6 mice as described previously (Yin S Y, Wang W H, Wang B X, Aravindaram K, Hwang P I, Wu H M, Yang N S. BMC genomics 2010, 11:612). In brief, bone marrow was isolated from femurs and tibiae which were then flushed with RPMI-1640 medium using a syringe with a 0.45-mm needle on Day 0. Red blood cells in suspension were lysed for […] with ACK lysing buffer (150 mM NH4Cl, 1.0 mM KHCO3, 0.1 mM EDTA). Bone marrow cells were suspended at a density of 1×10^7 cells/30 ml in RPMI-1640 containing 10% FBS, 2 mM L-glutamine, 1% of nonessential amino acids, 100 U/mL penicillin and 100 μg/mL streptomycin supplemented with 20 ng/mL of mGM-CSF in 15-cm dishes at 37° C. with 5% CO2. On day 2, two-thirds of the medium was removed and 30 mL fresh medium with mGM-CSF was added to the cells. On day 5, culture plates were gently swirled and the floating and loosely adherent cells were discarded. Aliquots of 75% culture media were replenished with 20 ng/mL mGM-CSF and 20 ng/mL mIL-4. On day 7, mouse BMDCs (95% pure CD11b and MHC II) were harvested and incubated in RPMI 1640 medium containing 1 mM sodium pyruvate, 0.1 mM nonessential amino acids, 100 U/ml penicillin, 100 μg/ml streptomycin, and supplemented with 10% fetal bovine serum (Invitrogen, Carlsbad, Calif.) for 24 h at 37° C. with or without test chemicals in the presence or absence of LPS (100 ng/ml).
BMDCs were treated with or without test chemicals in the presence or absence of LPS (100 ng/ml) for 24 h at 37° C. Aliquots of supernatants from DC cultures were assayed for IL-6 and TNF-α using commercial ELISA kits (R&D Systems, Minneapolis, Minn.) following the manufacturer's recommendations.
Several studies have reported that the secretion of specific cytokines, including IL-1β, TNF-α and IL-6 by keratinocytes and various immune cells is involved in cutaneous inflammation (Nestle F O, Di Meglio P, Qin J Z, Nickoloff B J. Nature reviews Immunology 2009, 9:679-691; De Vry C G, Valdez M, Lazarov M, Muhr E, Buelow R, Fong T, Iyer S. J Invest Dermatol 2005, 125:473-481; Cumberbatch M, Dearman R J, Kimber I. Immunology 1996, 87:513-518). In order to investigate the anti-inflammatory effect of BrD1 on cytokine expression, mouse bone marrow-derived dendritic cells were used to evaluate the inhibitory effect of BrD1 on LPS-induced expressions of TNF-α and IL-6. In our time-course study for expression of TNF-α and IL-6, after LPS stimulation, a high expression of TNF-α and IL-6 was maintained at 24 h (FIG. 6A). We therefore chose 24 h as the time point at which to assess the expression of TNF-α and IL-6.

## CCCCC(=O)O[C@H]1C[C@H](OC(C)=O)[C@@]2(C)[C@H]([C@H]1C)[C@H](OC(C)=O)[C@]13O[C@@]1(C)C(=O)O[C@H]3/C=C(/C)C[C@H](OC(=O)CCC)[C@@H]2OC(C)=O [BrD1-5C]
  inhibition of LPS-induced IL-6 expression (structure-activity relationship): inhibitory activity gradually decreased

## CCCCCC(=O)O[C@H]1C[C@H](OC(C)=O)[C@@]2(C)[C@H]([C@H]1C)[C@H](OC(C)=O)[C@]13O[C@@]1(C)C(=O)O[C@H]3/C=C(/C)C[C@H](OC(=O)CCC)[C@@H]2OC(C)=O [BrD1-6C]
  inhibition of LPS-induced IL-6 expression (structure-activity relationship): inhibitory activity gradually decreased

## CCCCCCC(=O)O[C@H]1C[C@H](OC(C)=O)[C@@]2(C)[C@H]([C@H]1C)[C@H](OC(C)=O)[C@]13O[C@@]1(C)C(=O)O[C@H]3/C=C(/C)C[C@H](OC(=O)CCC)[C@@H]2OC(C)=O [BrD1-7C]
  inhibition of LPS-induced IL-6 expression (structure-activity relationship): inhibitory activity gradually decreased

## CCCCCCCCCC(=O)O[C@H]1C[C@H](OC(C)=O)[C@@]2(C)[C@H]([C@H]1C)[C@H](OC(C)=O)[C@]13O[C@@]1(C)C(=O)O[C@H]3/C=C(/C)C[C@H](OC(=O)CCC)[C@@H]2OC(C)=O [BrD1-10C]
  inhibition of LPS-induced IL-6 expression (structure-activity relationship): inhibitory activity gradually decreased
